Literature values, collected in patent EP1033131B1, “Composition in the form of a drink having a delayed alcohol aversion effect” (Semenov, Sergei Petrovich, priority 1997, dated 1999).

What was measured:
[1] = for Anregungseffekt der Alkoholwirkung / alkoholische Anregung: result in words
Cholinesterase = conditions: factor of reduction
[2] = in vivo
Ratten = conditions: in vivo

Molecule | Anregungseffekt der Alkoholwirkung / alkoholische Anregung [1] | Dauer des narkotischen Effekts des Alkohols [2] | Verlaufsschwere des Alkoholentzugssyndroms (Ratten) | further results
CCOC(=O)C(O)=C(O)C(O)C(O)CO (centres unmarked) [1-Ethylester der Ascorbinsäure] | vermindern |  |  | Zeitraum der Anregung, verkürzt mit dem Quotienten ([1]; factor of shortening): 2; Aktivität der Cholinesterase, vermindert mit dem Quotienten (Cholinesterase): > 2
2,6-Diethylester der Ascorbinsäure |  | vermindert | vermindert | Stärke der alkoholischen Anregung, vermindert mit dem Quotienten ([1]; factor of reduction): 4; Eintreten der Anregungsphase ([1]; in vivo): verlangsamt; Dauer der alkoholischen Anregung, vermindert um ([1]; percent reduction): 25%
CCOC1=C(OCC)C(C(O)CO)OC1=O (centres unmarked) [2,3-Diethylester der Ascorbinsäure] | beeinflusst |  | vermindert | 
3,6-Diethylester der Ascorbinsäure |  | vermindert |  | 
